Test results from patent US7074789B2, “Kinase inhibitors” (Amgen Inc., priority 1999, dated 2006).

What was measured:
Type in all cases: biochemical
Lck = target: T1, Lck (Homo sapiens, UniProt P06239); assay: Kinase inhibition assay (33P transfer), Lck; conditions: Table 3; read-out: Lck-1
T1 construct: Kinases are expressed as either kinase domains or full length constructs; made in house
How it was run: (§1)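 Activity was read as 33P incorporation, counted by liquid scintillation after a 0.5% phosphoric acid wash, into poly(Glu,Tyr) 4:1 or poly(Arg,Ser) 3:1 substrates coated on plates. Enzymes were tagged (GST or polyHis) kinase domains or full-length proteins from bacterial or insect-cell expression, sometimes with regulatory polypeptides.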

Zap-70 = target: T2, Zap-70 (Homo sapiens, UniProt P43403); assay: Kinase inhibition assay (33P transfer), Zap-70; conditions: Table 3; read-out: Zap-1
T2 construct: Kinases are expressed as either kinase domains or full length constructs; made in house
T2 sequence (P43403 1-619): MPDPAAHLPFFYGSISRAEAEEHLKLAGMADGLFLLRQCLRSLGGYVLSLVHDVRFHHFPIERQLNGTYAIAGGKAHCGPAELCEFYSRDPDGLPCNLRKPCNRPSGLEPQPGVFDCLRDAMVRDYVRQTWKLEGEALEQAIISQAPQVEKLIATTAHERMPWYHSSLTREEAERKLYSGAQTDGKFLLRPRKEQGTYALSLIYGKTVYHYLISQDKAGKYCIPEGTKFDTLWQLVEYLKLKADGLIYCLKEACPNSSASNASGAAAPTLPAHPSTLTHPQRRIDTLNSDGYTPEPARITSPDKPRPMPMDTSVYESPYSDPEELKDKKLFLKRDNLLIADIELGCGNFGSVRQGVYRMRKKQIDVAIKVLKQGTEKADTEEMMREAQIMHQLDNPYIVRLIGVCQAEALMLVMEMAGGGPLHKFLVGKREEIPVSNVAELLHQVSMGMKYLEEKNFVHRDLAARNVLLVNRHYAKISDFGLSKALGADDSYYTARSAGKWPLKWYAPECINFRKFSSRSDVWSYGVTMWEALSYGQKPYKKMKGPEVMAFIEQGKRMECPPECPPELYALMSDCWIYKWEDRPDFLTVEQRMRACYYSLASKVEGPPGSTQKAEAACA
How it was run: as §1

Itk = target: T3, Itk (Homo sapiens, UniProt Q08881); assay: Kinase inhibition assay (33P transfer), Itk; conditions: Table 3; read-out: Itk-1
T3 construct: Kinases are expressed as either kinase domains or full length constructs; made in house
T3 sequence (Q08881 1-620): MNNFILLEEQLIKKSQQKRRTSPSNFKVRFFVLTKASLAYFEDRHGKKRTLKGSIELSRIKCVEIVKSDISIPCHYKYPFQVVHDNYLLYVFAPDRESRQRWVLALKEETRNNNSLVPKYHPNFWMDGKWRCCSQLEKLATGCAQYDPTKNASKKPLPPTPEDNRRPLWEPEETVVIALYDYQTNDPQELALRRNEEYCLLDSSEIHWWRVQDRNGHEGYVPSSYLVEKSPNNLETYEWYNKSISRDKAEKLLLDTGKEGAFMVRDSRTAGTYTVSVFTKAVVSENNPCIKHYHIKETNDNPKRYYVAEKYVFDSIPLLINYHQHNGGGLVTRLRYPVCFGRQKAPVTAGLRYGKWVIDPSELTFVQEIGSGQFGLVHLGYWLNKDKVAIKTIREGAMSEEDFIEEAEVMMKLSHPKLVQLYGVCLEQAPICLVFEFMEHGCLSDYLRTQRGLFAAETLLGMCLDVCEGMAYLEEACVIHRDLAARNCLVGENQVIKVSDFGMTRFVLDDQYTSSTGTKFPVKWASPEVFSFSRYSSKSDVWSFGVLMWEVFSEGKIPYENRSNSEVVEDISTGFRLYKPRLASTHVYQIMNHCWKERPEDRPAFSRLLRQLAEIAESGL
How it was run: (§2)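 GST/His-fusion kinases, E. coli or High Five expressed, affinity purified; 33P-ATP, plate-coated poly(Glu,Tyr) 4:1 or poly(Arg,Ser) 3:1; 0.5% H3PO4 wash, scintillant, LSC.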

EGFR = target: T4, EGFR (Homo sapiens, UniProt P00533); assay: Kinase inhibition assay (33P transfer), EGFR; conditions: Table 2, kinase inhibition class; read-out: EGFR-1
T4 construct: Kinases are expressed as either kinase domains or full length constructs; made in house
How it was run: as §2

Kdr = target: T5, Kdr (Homo sapiens, UniProt P35968); assay: Kinase inhibition assay (33P transfer), Kdr; conditions: Table 3; read-out: KDR-1
T5 construct: Kinases are expressed as either kinase domains or full length constructs; made in house
How it was run: as §1

Tek = target: T6, Tek (Homo sapiens, UniProt Q02763); assay: Kinase inhibition assay (33P transfer), Tek; conditions: read-out: Tek-1
T6 construct: Kinases are expressed as either kinase domains or full length constructs; made in house
T6 sequence (Q02763 23-1124, species assumed): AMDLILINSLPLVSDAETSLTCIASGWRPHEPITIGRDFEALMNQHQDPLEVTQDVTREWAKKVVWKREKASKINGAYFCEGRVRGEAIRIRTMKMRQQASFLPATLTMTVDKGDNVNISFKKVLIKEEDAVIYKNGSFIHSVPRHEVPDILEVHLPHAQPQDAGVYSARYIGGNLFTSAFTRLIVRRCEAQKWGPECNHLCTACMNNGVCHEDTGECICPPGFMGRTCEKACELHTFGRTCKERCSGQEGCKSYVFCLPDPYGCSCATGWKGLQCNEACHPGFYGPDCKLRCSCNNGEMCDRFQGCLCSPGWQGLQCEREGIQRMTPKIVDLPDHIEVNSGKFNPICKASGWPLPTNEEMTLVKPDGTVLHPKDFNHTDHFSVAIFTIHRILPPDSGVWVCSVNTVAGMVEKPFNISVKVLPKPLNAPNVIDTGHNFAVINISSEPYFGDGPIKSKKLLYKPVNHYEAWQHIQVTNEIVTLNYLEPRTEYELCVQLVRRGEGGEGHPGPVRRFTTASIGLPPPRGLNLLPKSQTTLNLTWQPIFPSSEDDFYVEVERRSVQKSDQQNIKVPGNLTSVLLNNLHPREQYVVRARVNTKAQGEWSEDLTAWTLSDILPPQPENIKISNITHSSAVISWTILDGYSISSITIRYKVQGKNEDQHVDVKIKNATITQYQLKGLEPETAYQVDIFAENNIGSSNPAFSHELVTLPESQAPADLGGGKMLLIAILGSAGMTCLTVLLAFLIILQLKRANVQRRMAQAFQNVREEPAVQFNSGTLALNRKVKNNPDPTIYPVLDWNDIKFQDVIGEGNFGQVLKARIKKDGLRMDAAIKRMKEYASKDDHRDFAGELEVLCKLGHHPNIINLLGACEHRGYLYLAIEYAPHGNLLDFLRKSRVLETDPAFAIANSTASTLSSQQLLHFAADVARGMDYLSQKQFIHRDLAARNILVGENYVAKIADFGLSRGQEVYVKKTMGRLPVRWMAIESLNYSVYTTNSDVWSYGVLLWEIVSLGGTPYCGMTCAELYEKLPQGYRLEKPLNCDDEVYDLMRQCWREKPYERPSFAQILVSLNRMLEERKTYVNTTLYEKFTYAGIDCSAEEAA
How it was run: as §2

c-Met = target: T7, c-Met (Homo sapiens, UniProt P08581); assay: Kinase inhibition assay (33P transfer), c-Met; conditions: Table 2, kinase inhibition class; read-out: Met-1
T7 construct: Kinases are expressed as either kinase domains or full length constructs; made in house
T7 sequence (P08581 25-1390): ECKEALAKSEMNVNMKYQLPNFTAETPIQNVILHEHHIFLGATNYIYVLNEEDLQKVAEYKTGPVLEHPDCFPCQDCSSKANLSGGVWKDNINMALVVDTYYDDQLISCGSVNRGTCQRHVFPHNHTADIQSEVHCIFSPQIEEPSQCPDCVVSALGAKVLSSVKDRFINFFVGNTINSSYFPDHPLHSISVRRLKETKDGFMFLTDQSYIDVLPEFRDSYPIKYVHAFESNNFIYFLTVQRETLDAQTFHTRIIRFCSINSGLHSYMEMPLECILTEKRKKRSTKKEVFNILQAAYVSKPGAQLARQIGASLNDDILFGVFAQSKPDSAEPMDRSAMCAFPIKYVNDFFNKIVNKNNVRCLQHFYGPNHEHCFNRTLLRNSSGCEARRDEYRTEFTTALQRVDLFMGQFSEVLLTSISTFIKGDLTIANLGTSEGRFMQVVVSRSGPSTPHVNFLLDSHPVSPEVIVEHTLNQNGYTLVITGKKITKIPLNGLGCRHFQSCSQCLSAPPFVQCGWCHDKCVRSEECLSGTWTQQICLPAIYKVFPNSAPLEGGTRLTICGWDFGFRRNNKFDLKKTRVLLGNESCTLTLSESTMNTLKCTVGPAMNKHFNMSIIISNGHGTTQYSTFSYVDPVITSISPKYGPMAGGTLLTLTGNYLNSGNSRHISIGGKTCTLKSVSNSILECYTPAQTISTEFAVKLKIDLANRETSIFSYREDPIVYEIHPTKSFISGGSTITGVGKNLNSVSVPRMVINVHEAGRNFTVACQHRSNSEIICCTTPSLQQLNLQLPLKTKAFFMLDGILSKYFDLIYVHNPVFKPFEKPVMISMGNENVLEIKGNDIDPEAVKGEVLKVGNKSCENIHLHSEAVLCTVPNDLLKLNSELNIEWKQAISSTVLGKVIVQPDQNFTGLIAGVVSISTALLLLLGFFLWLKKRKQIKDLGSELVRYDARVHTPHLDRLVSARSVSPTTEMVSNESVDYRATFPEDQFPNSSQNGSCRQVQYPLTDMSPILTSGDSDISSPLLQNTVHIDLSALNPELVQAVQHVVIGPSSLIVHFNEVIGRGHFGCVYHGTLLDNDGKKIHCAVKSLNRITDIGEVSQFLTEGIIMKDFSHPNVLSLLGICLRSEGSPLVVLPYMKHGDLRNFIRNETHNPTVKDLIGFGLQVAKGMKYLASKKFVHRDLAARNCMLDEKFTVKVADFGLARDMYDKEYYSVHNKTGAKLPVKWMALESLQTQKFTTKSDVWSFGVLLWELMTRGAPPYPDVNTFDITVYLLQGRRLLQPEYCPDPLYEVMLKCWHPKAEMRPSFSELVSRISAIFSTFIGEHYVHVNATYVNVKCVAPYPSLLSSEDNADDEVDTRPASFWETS
How it was run: as §2

AKT = target: T8, AKT (Homo sapiens, UniProt Q9Y243); assay: Kinase inhibition assay (33P transfer), AKT; conditions: Table 2, kinase inhibition class; read-out: AKT3-1
T8 construct: Kinases are expressed as either kinase domains or full length constructs; made in house
T8 sequence (Q9Y243 whole entry, the tested form may be a part): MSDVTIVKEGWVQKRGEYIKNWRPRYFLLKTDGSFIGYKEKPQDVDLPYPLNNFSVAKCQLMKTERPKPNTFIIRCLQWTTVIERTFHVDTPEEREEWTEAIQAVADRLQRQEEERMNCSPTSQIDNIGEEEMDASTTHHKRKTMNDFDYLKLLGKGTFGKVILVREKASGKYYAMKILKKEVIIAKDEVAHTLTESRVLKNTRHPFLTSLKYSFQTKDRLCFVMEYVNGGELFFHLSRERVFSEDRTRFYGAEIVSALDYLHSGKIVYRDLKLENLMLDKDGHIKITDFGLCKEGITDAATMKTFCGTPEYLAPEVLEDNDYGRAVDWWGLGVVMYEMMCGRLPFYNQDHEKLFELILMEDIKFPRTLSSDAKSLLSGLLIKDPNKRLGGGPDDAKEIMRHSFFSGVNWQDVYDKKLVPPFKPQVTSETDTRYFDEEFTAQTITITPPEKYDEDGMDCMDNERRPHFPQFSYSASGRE
How it was run: as §1

IGFR-1 = target: T9, IGFR-1 (Homo sapiens, UniProt P08069); assay: Kinase inhibition assay (33P transfer), IGFR-1; conditions: Table 2, kinase inhibition class
T9 construct: Kinases are expressed as either kinase domains or full length constructs; made in house
T9 sequence (P08069 31-1367): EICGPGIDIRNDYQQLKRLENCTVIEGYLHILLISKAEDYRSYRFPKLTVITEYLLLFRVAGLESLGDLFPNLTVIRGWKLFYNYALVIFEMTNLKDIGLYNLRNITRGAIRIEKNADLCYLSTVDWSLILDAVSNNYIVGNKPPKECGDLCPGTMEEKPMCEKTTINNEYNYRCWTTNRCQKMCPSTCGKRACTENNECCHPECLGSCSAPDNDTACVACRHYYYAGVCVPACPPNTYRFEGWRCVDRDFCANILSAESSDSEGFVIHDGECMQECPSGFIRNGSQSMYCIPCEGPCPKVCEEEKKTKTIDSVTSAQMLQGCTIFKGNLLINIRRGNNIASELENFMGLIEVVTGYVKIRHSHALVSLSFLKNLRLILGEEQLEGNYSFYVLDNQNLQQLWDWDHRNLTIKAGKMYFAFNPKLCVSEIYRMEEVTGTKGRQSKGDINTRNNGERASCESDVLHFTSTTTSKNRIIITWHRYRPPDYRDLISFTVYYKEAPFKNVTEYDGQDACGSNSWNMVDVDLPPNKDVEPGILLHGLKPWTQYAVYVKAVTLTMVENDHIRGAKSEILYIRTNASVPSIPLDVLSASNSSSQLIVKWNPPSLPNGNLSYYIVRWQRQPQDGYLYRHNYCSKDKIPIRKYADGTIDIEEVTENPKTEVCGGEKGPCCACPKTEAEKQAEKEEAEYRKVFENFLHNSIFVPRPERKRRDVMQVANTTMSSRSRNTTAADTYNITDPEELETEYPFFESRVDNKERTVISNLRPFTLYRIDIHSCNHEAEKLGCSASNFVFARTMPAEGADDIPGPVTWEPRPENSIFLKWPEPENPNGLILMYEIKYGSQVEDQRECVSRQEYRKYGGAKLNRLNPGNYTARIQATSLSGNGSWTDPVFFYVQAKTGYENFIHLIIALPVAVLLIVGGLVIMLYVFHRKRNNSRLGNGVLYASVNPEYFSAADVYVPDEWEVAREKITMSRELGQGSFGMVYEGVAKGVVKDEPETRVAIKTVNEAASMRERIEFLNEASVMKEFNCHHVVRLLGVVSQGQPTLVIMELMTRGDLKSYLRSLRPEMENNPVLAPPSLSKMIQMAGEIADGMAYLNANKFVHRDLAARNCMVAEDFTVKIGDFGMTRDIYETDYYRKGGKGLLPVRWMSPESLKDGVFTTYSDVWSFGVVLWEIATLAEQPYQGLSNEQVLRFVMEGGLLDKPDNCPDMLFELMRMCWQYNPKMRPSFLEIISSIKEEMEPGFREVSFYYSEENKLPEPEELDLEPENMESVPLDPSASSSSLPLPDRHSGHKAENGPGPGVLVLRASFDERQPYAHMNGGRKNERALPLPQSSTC

EPHB4 = target: T10, EPHB4 (Homo sapiens, UniProt P54760); assay: Kinase inhibition assay (33P transfer), EPHB4; conditions: read-out: EPHB4-1
T10 construct: Kinases are expressed as either kinase domains or full length constructs; made in house
T10 sequence (P54760 16-987): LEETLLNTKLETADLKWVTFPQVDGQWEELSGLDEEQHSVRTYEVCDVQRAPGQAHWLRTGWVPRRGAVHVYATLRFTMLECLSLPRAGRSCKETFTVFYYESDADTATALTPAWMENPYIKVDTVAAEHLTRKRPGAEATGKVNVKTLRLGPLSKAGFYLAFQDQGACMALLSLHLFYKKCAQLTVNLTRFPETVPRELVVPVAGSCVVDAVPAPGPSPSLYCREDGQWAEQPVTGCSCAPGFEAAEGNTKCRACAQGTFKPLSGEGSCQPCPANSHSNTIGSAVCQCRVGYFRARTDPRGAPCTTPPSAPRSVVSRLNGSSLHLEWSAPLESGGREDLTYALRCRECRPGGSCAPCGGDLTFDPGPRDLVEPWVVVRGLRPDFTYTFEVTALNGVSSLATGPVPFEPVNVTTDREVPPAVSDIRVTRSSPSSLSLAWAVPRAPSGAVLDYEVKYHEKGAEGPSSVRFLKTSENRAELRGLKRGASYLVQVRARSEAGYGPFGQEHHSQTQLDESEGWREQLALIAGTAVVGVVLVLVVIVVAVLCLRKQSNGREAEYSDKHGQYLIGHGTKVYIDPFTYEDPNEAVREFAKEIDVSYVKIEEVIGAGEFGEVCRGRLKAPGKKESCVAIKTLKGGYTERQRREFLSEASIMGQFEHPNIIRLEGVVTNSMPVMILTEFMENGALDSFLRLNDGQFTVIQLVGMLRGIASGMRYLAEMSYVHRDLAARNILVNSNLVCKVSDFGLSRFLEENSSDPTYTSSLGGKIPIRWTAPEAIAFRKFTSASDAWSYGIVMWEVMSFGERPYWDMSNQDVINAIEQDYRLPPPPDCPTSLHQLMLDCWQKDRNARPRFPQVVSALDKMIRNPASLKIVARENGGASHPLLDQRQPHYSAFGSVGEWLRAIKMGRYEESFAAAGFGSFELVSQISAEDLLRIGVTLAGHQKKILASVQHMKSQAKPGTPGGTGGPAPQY

ErbB4 = target: T11, ErbB4 (Homo sapiens, UniProt Q15303); assay: Kinase inhibition assay (33P transfer), ErbB4; conditions: read-out: ErbB4-1
T11 construct: Kinases are expressed as either kinase domains or full length constructs; made in house

T1 sequence (P06239 whole entry, species assumed, the tested form may be a part): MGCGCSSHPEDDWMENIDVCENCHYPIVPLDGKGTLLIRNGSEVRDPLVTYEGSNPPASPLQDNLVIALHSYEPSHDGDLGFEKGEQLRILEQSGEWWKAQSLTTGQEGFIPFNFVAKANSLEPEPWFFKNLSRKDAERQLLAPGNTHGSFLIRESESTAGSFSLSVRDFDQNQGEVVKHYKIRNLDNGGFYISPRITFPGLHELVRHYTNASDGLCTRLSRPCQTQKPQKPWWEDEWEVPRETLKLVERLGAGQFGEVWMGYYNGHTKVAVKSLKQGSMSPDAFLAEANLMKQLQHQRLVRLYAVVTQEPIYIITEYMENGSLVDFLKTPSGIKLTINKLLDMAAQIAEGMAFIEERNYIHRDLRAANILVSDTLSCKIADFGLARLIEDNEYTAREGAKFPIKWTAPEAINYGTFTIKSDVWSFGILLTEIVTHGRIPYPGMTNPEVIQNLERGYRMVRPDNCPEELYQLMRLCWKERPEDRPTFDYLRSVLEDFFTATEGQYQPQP

SMILES | IC50 (Lck) | IC50 (Zap-70) | IC50 (Itk) | IC50 (EGFR) | IC50 (Kdr) | IC50 (Tek) | IC50 (c-Met) | IC50 (AKT) | IC50 (IGFR-1) | IC50 (EPHB4) | IC50 (ErbB4)
COc1cc(Nc2ncnc(Nc3ccc(C)c([N+](=O)[O-])c3)n2)cc(OC)c1OC [Compound 934] | > 10.9 µM | > 10.9 µM | > 10.9 µM | 0.97 to 5.82 µM | 0.97 to 5.82 µM |  | > 10.9 µM | > 10.9 µM | < 0.97 µM | 0.97 to 5.82 µM | > 10.9 µM
COc1cc(Nc2ncnc(Nc3cccc(C(=O)O)c3)n2)cc(OC)c1OC [Compound 933] | 1.01 to 6.04 µM | > 11.3 µM | > 11.3 µM | < 1.01 µM | 1.01 to 6.04 µM |  | > 11.3 µM | > 11.3 µM | 1.01 to 6.04 µM | 6.04 to 8.81 µM | 1.01 to 6.04 µM
COc1cc(Nc2ncnc(Nc3ccc(N(C)C(C)=O)cc3)n2)cc(OC)c1OC [Compound 81] | 0.942 to 5.65 µM | > 10.6 µM | > 10.6 µM | > 10.6 µM | 0.942 to 5.65 µM | > 10.6 µM | > 10.6 µM | > 10.6 µM | > 10.6 µM | > 10.6 µM | 
COc1ccc(Oc2ncnc(Nc3cc(OC)c(OC)c(OC)c3)n2)cc1 [Compound 174] | > 11.7 µM | > 11.7 µM | > 11.7 µM | 6.24 to 9.11 µM | < 1.04 µM | > 11.7 µM | > 11.7 µM | > 11.7 µM | > 11.7 µM | > 11.7 µM | 
COc1cc(Nc2ncnc(Nc3[nH]ncc3-c3cccs3)n2)cc(OC)c1OC [Compound 368] | 8.23 to 10.6 µM | > 10.6 µM | > 10.6 µM | > 10.6 µM | > 10.6 µM | > 10.6 µM | > 10.6 µM | > 10.6 µM | > 10.6 µM | > 10.6 µM | 
COc1ccc(Nc2ncnc(N(CC(=O)OC(C)(C)C)c3ccc4c(c3)OCO4)n2)cc1OC [Compound 310] | 0.831 to 4.98 µM | > 9.35 µM | > 9.35 µM | 0.831 to 4.98 µM | 7.27 to 9.35 µM | > 9.35 µM | > 9.35 µM | > 9.35 µM | 0.831 to 4.98 µM | > 9.35 µM | 
COc1ccc(Nc2ncnc(Nc3ccc(Br)cc3F)n2)cc1OC [Compound 117] | 5.71 to 8.33 µM | 8.33 to 10.7 µM | > 10.7 µM | 5.71 to 8.33 µM | 0.952 to 5.71 µM | > 10.7 µM | 8.33 to 10.7 µM | 5.71 to 8.33 µM | > 10.7 µM | 8.33 to 10.7 µM | 

Results, then the molecule that gave them:

IC50 (Lck) | IC50 (Zap-70) | IC50 (Itk) | IC50 (EGFR) | IC50 (Kdr) | IC50 (Tek) | IC50 (c-Met) | IC50 (AKT) | IC50 (IGFR-1) | IC50 (EPHB4) | IC50 (ErbB4) | SMILES
> 10.8 µM | > 10.8 µM | > 10.8 µM | < 0.963 µM | > 10.8 µM | > 10.8 µM | > 10.8 µM | 0.963 to 5.78 µM | > 10.8 µM | 5.78 to 8.42 µM | > 10.8 µM | COc1ccc(Nc2ncnc(Nc3ccc(OCc4ccccc4)cc3)n2)cc1O [Compound 171]
> 9.71 µM | > 9.71 µM | > 9.71 µM | > 9.71 µM | 7.55 to 9.71 µM | > 9.71 µM | > 9.71 µM | > 9.71 µM | > 9.71 µM | > 9.71 µM |  | COc1cc(Nc2ncnc(Nc3c(C)n(C)n(-c4ccccc4)c3=O)n2)cc(OC)c1OC [Compound 256]
10.2 to 13.1 µM | 10.2 to 13.1 µM | > 13.1 µM | > 13.1 µM | 6.97 to 10.2 µM | 10.2 to 13.1 µM | > 13.1 µM | > 13.1 µM | > 13.1 µM | > 13.1 µM |  | COc1cc(Nc2ncnc(-c3ccsc3)n2)cc(OC)c1OC [Compound 226]
4.76 to 6.95 µM | > 8.93 µM | > 8.93 µM | > 8.93 µM | 0.794 to 4.76 µM | > 8.93 µM | > 8.93 µM | > 8.93 µM | > 8.93 µM | > 8.93 µM |  | COc1cc(Nc2ncnc(-n3c(Nc4ccc(Cl)cc4)nc4ccccc43)n2)cc(OC)c1OC [Compound 375]
> 9.81 µM | > 9.81 µM | > 9.81 µM | > 9.81 µM | > 9.81 µM | > 9.81 µM | > 9.81 µM | > 9.81 µM | > 9.81 µM | > 9.81 µM |  | COc1cc(Nc2ncnc(Nc3ccc(NCc4ccccc4)cc3)n2)cc(OC)c1OC [Compound 93]
> 11.5 µM | > 11.5 µM | > 11.5 µM | > 11.5 µM | 1.02 to 6.13 µM | > 11.5 µM | > 11.5 µM | > 11.5 µM | 1.02 to 6.13 µM | 8.94 to 11.5 µM |  | c1ccc(-c2ncnc(Nc3ccc(OCCCN4CCOCC4)cc3)n2)cc1 [Compound 154]
8.94 to 11.5 µM | 1.02 to 6.13 µM | > 11.5 µM | 6.13 to 8.94 µM | 1.02 to 6.13 µM | 6.13 to 8.94 µM | 1.02 to 6.13 µM | 1.02 to 6.13 µM | 6.13 to 8.94 µM | > 11.5 µM |  | CCOc1ccc(Nc2ncnc(-n3c(N)nc4ccccc43)n2)cc1OCC [Compound 299]
> 10.1 µM | > 10.1 µM | > 10.1 µM | > 10.1 µM | 0.902 to 5.41 µM | > 10.1 µM | > 10.1 µM | > 10.1 µM | > 10.1 µM | > 10.1 µM |  | COCCOc1ccc(Nc2ncnc(Nc3ccc(C)c(F)c3)n2)cc1OCCOC [Compound 322]
